Patent US20230123534A1, “LIPIDS FOR LIPID NANOPARTICLE DELIVERY OF ACTIVE AGENTS” (Acuitas Therapeutics, Inc., priority 2019, published 2023)
Where two headings read alike, the source gives them in different places.

Assays:
[1] = system: luciferase expression in the liver; test: In vivo luciferase mRNA expression rodent model (liver luciferase after tail vein injection of FLuc mRNA lipid nanoparticles); parameters: species or system mice; details: liver 4 hours after administration, FLuc mRNA (L-6107) LNP 50% cationic lipid/10% DSPC/38.5% cholesterol/1.5% PEG-DMG; for Liver Luc @ 0.3 mg/kg dose: 0.3 mg mRNA/kg; for Liver Luc @ 1.0 mg/kg dose: 1.0 mg mRNA/kg
Protocol: Lipid nanoparticles were prepared and tested according to the general procedures described in PCT Pub. Nos. WO 2015/199952 and WO 2017/004143, the full disclosures of which are incorporated herein by reference. Briefly, cationic lipid, DSPC, cholesterol and PEG-lipid were solubilized in ethanol at a molar ratio of about 50:10:38.5:1.5 or about 47.5:10:40.8:1.7. Lipid nanoparticles (LNP) were prepared at a total lipid to mRNA weight ratio of approximately 10:1 to 30:1. The mRNA is diluted to 0.2 mg/mL in 10 to 50 mM citrate or acetate buffer, pH 4. Syringe pumps were used to mix the ethanolic lipid solution with the mRNA aqueous solution at a ratio of about 1:5 to 1:3 (vol/vol) with total flow rates above 15 mL/min. The ethanol was then removed and the external buffer replaced with PBS by dialysis. Finally, the lipid nanoparticles were filtered through a 0.2 µm pore sterile filter. Lipid nanoparticle particle size was approximately 55-95 nm diameter, and in some instances approximately 70-90 nm diameter as determined by quasi-elastic light scattering using a Malvern Zetasizer Nano ZS (Malvern, UK).
Studies were performed in 6-8 week old female C57BL/6 mice (Charles River) or 8-10 week old CD-1 (Harlan) mice (Charles River) according to guidelines established by an institutional animal care committee (ACC) and the Canadian Council on Animal Care (CCAC). Varying doses of mRNA-lipid nanoparticle were systemically administered by tail vein injection and animals euthanized at a specific time point (e.g., 4 hours) post-administration. Liver and spleen were collected in pre-weighed tubes, weights determined, immediately snap frozen in liquid nitrogen and stored at -80° C. until processing for analysis.
For liver, approximately 50 mg was dissected for analyses in a 2 mL FastPrep tubes (MP Biomedicals, Solon OH). ¼” ceramic sphere (MP Biomedicals) is added to each tube and 500 µL of Glo Lysis Buffer - GLB (Promega, Madison Wl) equilibrated to room temperature is added to liver tissue. Liver tissues were homogenized with the FastPrep24 instrument (MP Biomedicals) at 2 × 6.0 m/s for 15 seconds. Homogenate was incubated at room temperature for 5 minutes prior to a 1:4 dilution in GLB and assessed using SteadyGlo Luciferase assay system (Promega). Specifically, 50 µL of diluted tissue homogenate was reacted with 50 µL of SteadyGlo substrate, shaken for 10 seconds followed by 5 minute incubation and then quantitated using a CentroXS^3 LB 960 luminometer (Berthold Technologies, Germany). The amount of protein assayed was determined by using the BCA protein assay kit (Pierce, Rockford IL). Relative luminescence units (RLU) were then normalized to total µg protein assayed. To convert RLU to ng luciferase a standard curve was generated with QuantiLum Recombinant Luciferase (Promega).
The FLuc mRNA (L-6107 or L-7202) from Trilink Biotechnologies will express a luciferase protein, originally isolated from the firefly, photinus pyralis. FLuc is commonly used in mammalian cell culture to measure both gene expression and cell viability. It emits bioluminescence in the presence of the substrate, luciferin. This capped and poly-adenylated mRNA was fully substituted with respect to uridine and/or cytidine nucleosides.
The cationic lipids shown in Table 2 have previously been tested with nucleic acids. For comparative purposes, these lipids were also used to formulate lipid nanoparticles containing the FLuc mRNA (L-6107) using an in line mixing method, as described in Example 1 and in PCT/US10/22614, which is hereby incorporated by reference in its entirety. Lipid nanoparticles were formulated using the following molar ratio: 50% Cationic lipid / 10% distearoylphosphatidylcholine (DSPC) / 38.5% Cholesterol / 1.5% PEG lipid (“PEG-DMG”, i.e., 1-(monomethoxy-polyethyleneglycol)-2,3-dimyristoylglycerol, with an average PEG molecular weight of 2000). […]

[2] = system: luciferase expression in the liver; test: as above; parameters: species or system mice; details: 0.5 mg mRNA/kg, liver 4 hours after administration, LNP 50% cationic lipid/10% DSPC/38.5% cholesterol/1.5% PEG-DMA or 47.5/10/40.7/1.8
[3] = Determination of pKa of formulated lipids (TNS fluorescence assay in lipid nanoparticles); type: physicochemical
Protocol: As described elsewhere, the pKa of formulated cationic lipids is correlated with the effectiveness of LNPs for delivery of nucleic acids (see Jayaraman et al, Angewandte Chemie, International Edition (2012), 51(34), 8529-8533; Semple et al, Nature Biotechnology 28, 172-176 (2010)). […] Lipid nanoparticles comprising cationic lipid/DSPC/cholesterol/PEG-lipid (50/10/38.5/1.5 mol%) in PBS at a concentration of 0.4 mM total lipid were prepared using the in-line process as described in Example 1. TNS was prepared as a 100 µM stock solution in distilled water. Vesicles were diluted to 24 µM lipid in 2 mL of buffered solutions containing, 10 mM HEPES, 10 mM MES, 10 mM ammonium acetate, 130 mM NaCl, where the pH ranged from 2.5 to 11. An aliquot of the TNS solution was added to give a final concentration of 1 µM and following vortex mixing fluorescence intensity was measured at room temperature in a SLM Aminco Series 2 Luminescence Spectrophotometer using excitation and emission wavelengths of 321 nm and 445 nm. A sigmoidal best fit analysis was applied to the fluorescence data and the pKa was measured as the pH giving rise to half-maximal fluorescence intensity.

[4] = Table 3, cationic lipid formulated in LNP, TNS fluorescence assay, read-out: pKa

Structure (SMILES)	Liver Luc @ 0.3 mg/kg dose [1] [ng luciferase/g liver]	Liver Luc @ 1.0 mg/kg dose [1] [ng luciferase/g liver]	Liver Luc @ 0.5 mg/kg (ng luc/g liver) [2] [ng luc/g liver]	other results
CCCCCC/C=C\COC(=O)CCCCCCCC(CCCCCCCC(=O)OC/C=C\CCCCCC)OC(=O)CCCN(C)C [319 (2% PEG)]	258 ± 67	681 ± 203	–	–
CCCCC/C=C\C/C=C\CCCCCCCCN(CCCCCCCC/C=C\C/C=C\CCCCC)CCN(C)C [A]	77 ± 40	203 ± 122	–	–
CCCCC(CC)C(=O)OCCCCCCCCCC(CCCCCCCCCOC(=O)C(CC)CCCC)OC(=O)CCCN(C)C (stereo not shown) [Compound 137]	281 ± 203	588 ± 303	–	–
CCCCCCCCCCN(C(=O)CCCCN(C)C)C(CCCCCCCCC(=O)OCC(CCCC)CCCCCC)CCCCCCCCC(=O)OCC(CCCC)CCCCCC (stereo not shown) [Compound I-7, BIS(2-BUTYLOCTYL) 10-(N-DECYL-5-(DIMETHYLAMINO)PENTANAMIDO)NONADECANEDIOATE]	–	–	2420 ± 1079	–
CCCCCCCCCCN(C(=O)CCCCN(CC)CC)C(CCCCCCCCC(=O)OCC(CCCC)CCCCCC)CCCCCCCCC(=O)OCC(CCCC)CCCCCC (stereo not shown) [Compound I-8, BIS(2-BUTYLOCTYL) 10-(N-DECYL-5-(DIETHYLAMINO)PENTANAMIDO)NONADECANEDIOATE]	–	–	7384 ± 1916	–
CCCCCCCCCCN(C(=O)CCCCN1CCCC1)C(CCCCCCCCC(=O)OCC(CCCC)CCCCCC)CCCCCCCCC(=O)OCC(CCCC)CCCCCC (stereo not shown) [Compound I-9, BIS(2-BUTYLOCTYL) 10-(N-DECYL-5-(PYRROLIDIN-1-YL)PENTANAMIDO)NONADECANEDIOATE]	–	–	2223 ± 777	–
CCCCCCCCCCN(C(=O)CCCN(C)C)C(CCCCCC(=O)OCC(CCCCCC)CCCCCCCC)CCCCCC(=O)OCC(CCCCCC)CCCCCCCC (stereo not shown) [Compound I-16, BIS(2-HEXYLDECYL) 7-(N-DECYL-4-(DIMETHYLAMINO)BUTANAMIDO)TRIDECANEDIOATE]	–	–	4678 ± 1243	–
CCCCCCCCCCN(C(=O)CCCN(C)C)C(CCCCCCCCC(=O)OCC(CCCC)CCCCCC)CCCCCCCCC(=O)OCC(CCCC)CCCCCC (stereo not shown) [Compound I-18, BIS(2-BUTYLOCTYL) 10-(N-DECYL-4-(DIMETHYLAMINO)BUTANAMIDO)NONADECANEDIOATE]	–	–	13301 ± 8071	–
CCCCCCCCCCN(C(=O)CCCN1CCCC1)C(CCCCCC(=O)OCC(CCCCCC)CCCCCCCC)CCCCCC(=O)OCC(CCCCCC)CCCCCCCC (stereo not shown) [Compound I-29, BIS(2-HEXYLDECYL) 7-(N-DECYL-4-(PYRROLIDIN-1-YL)BUTANAMIDO)TRIDECANEDIOATE]	–	–	5551 ± 1650	–
CCCCCCC(CCCC)COC(=O)CCCCCCCCC(CCCCCCCCC(=O)OCC(CCCC)CCCCCC)N(CC(CC)CCCC)C(=O)CCCN(C)C (stereo not shown) [Compound I-30, BIS(2-BUTYLOCTYL) 10-(4-(DIMETHYLAMINO)-N-(2-ETHYLHEXYL)BUTANAMIDO)NONADECANEDIOATE]	–	–	13614 ± 3348	pKa ([3]; Table 1, cationic lipid formulated in LNP (cationic lipid/DSPC/cholesterol/PEG-lipid 50/10/38.5/1.5 mol%), TNS fluorescence, pH giving half-maximal fluorescence): 6.47; pKa ([3]; Table 3, cationic lipid formulated in LNP, TNS fluorescence assay): 6.47
CCCCCCCCCCN(C(=O)CCCN(C)C)C(CCCCCCCCCOC(=O)C(CCCC)CCCCCC)CCCCCCCCCOC(=O)C(CCCC)CCCCCC (stereo not shown) [Compound I-32, 10-(4-(DIMETHYLAMINO)-N-DECYLBUTANAMIDO)NONADECANE-1,19-DIYL BIS(2-BUTYLOCTANOATE)]	–	–	4091 ± 713	pKa ([3]; Table 1, cationic lipid formulated in LNP (cationic lipid/DSPC/cholesterol/PEG-lipid 50/10/38.5/1.5 mol%), TNS fluorescence, pH giving half-maximal fluorescence, read-out: pKa): 6.41
CCCCCCCCCCN(C(=O)CCN1CCCC1)C(CCCCCCCCC(=O)OCC(CCCC)CCCCCC)CCCCCCCCC(=O)OCC(CCCC)CCCCCC (stereo not shown) [Compound I-33, BIS(2-BUTYLOCTYL) 10-(N-DECYL-3-(PYRROLIDIN-1-YL)PROPANAMIDO)NONADECANEDIOATE]	–	–	1304 ± 278	–
CCCCCCCCCCN(C(=O)CCN(C)C)C(CCCCCC(=O)OCC(CCCCCC)CCCCCCCC)CCCCCC(=O)OCC(CCCCCC)CCCCCCCC (stereo not shown) [Compound I-35, BIS(2-HEXYLDECYL) 7-(N-DECYL-3-(DIMETHYLAMINO)PROPANAMIDO)TRIDECANEDIOATE]	–	–	14312 ± 4174	pKa [3, 4]: 6.39
CCCCCCCCC(CCCCCC)COC(=O)CCCCCC(CCCCCC(=O)OCC(CCCCCC)CCCCCCCC)N(CCCCCC(=O)OCC(CC)CCCC)C(=O)CCN(C)C (stereo not shown) [Compound I-36, BIS(2-HEXYLDECYL) 7-(3-(DIMETHYLAMINO)-N-(6-((2-ETHYLHEXYL)OXY)-6-OXOHEXYL)PROPANAMIDO)TRIDECANEDIOATE]	–	–	10377 ± 1435	pKa [3, 4]: 6.55
CCCCCCCCCCN(C(=O)CCCN(C)C)C(CCCCCCCCC(=O)OC(CCCCCC)CCCCCC)CCCCCCCCC(=O)OC(CCCCCC)CCCCCC [Compound I-37, DI(TRIDECAN-7-YL) 10-(N-DECYL-4-(DIMETHYLAMINO)BUTANAMIDO)NONADECANEDIOATE]	–	–	15234 ± 5248	pKa [3, 4]: 6.3
CCCCC/C=C\C/C=C\CCCCCCCCOCC(CN(C)C)OCCCCCCCC/C=C\C/C=C\CCCCC (stereo not shown) [DLinDMA]	13 ± 3	67 ± 20	–	–
CCCCC/C=C\C/C=C\CCCCCCCCC(CCCCCCCC/C=C\C/C=C\CCCCC)OC(=O)CCN(C)C [MC2]	4 ± 1	–	–	–
CCCCC/C=C\C/C=C\CCCCCCCCC(CCCCCCCC/C=C\C/C=C\CCCCC)OC(=O)CCCN(C)C [MC3]	–	757 ± 528	–	–
CCCCC/C=C\C/C=C\CCCCCCCCC(CCCCCCCC/C=C\C/C=C\CCCCC)OC(=O)CCCCN(C)C [MC4]	41 ± 10	–	–	–
CCCCC/C=C\C/C=C\CCCCCCCCC1(CCCCCCCC/C=C\C/C=C\CCCCC)OC[C@@H](CCN(C)C)O1 [XTC2]	80 ± 28	237 ± 99	–	–
